# Data as given in PMC4279406, “Simultaneous targeting of PI3Kδ and a PI3Kδ-dependent MEK1/2-Erk1/2 pathway for therapy in pediatric B-cell acute lymphoblastic leukemia” (Oncotarget, 2014).
# Experiments:
# [1] = tested on: PI3KC2α, PI3KC2γ, PIP4K2α, PIP5K1α and PIP5K1γ; assay: Selectivity against other lipid kinases; type: biochemical
# Excerpt: (§1) Utilizing the crystal structure of PI3Kδ, we designed and synthesized a series of compounds in an effort to discover new potent and selective PI3Kδ inhibitors, which bind to PI3Kδ differently from CAL-101. […] The benzimidazole group of X-370 extends into the affinity pocket, where its nitrogen acts as a hydrogen bond acceptor for the primary amine of Lys779. The difluoromethyl group of X-370 points toward Pro758 in the hydrophobic affinity pocket. Instead of wedging between Met752 and Trp760, a binding mode utilized by CAL-101 to generate specificity against PI3Kδ (Figure S1), the pyrrole group of X-370 presses tightly against Trp760. These specific interactions of X-370 with p110δ confer a selective and potent inhibition of PI3Kδ. As expected, X-370 inhibited the kinase activity of PI3Kδ in an ATP-competitive manner, with IC50 increasing in concert with ATP levels (Figure 1C), confirming the binding of X-370 in the ATP pocket. […] More than 1000-fold selectivity was seen against other lipid kinases tested including PI3KC2α, PI3KC2γ, PIP4K2α, PIP5K1α and PIP5K1γ. […]
# Figure 1 Structure of X-370 and its inhibitory activity against lipid kinases (A) Chemical structure of X-370. […] Relative kinase activity in the presence of 10 μM X-370 compared to DMSO control was measured for the rest of lipid kinases. […]
# [2] = tested on: Raji-R cells; assay: Proliferation of rituximab-resistant Raji-R cells (CCK-8); type: cell-based, human
# Description: Raji and SU-DHL-6 cells were treated with X-370 for 1 h (left panel) or treated with 0.5 μM X-370 for indicated times (middle panel). Right panel, Raji cells were incubated in fresh medium following treatment with 0.5 μM X-370 for 1 h. Indicated proteins were detected. (B) Raji-R (the rituximab-resistant derivatives of Raji cells) cells were resistant to X-370. The activity of X-370 on the proliferation of Raji parent and Raji-R cells was determined by CCK-8 assay as described in the methods section. (C) X-370 blocked phosphorylation of Akt but not Erk1/2 in Raji-R cells. Raji-R cells were treated with X-370 for 1h and indicated proteins were detected. Data shown are representative from three independent experiments.
# (§2) Cell viability was assessed using Cell Counting Kit (CCK-8, Dojindo, Japan) following the manufacturer's protocol and OD values were measured with a Spectramax M5 plate reader (Molecular Devices, Sunnyvale, CA)[45].
# [3] = target: PI3Kδ (Homo sapiens, UniProt O00329); assay: PI3-Kinase HTRF assay with increasing ATP; type: biochemical; design: GST; made in house; host or cells: Sf9 insect cells; conditions: IC50 increasing in concert with ATP levels
# Chain of PI3Kδ (O00329 whole entry): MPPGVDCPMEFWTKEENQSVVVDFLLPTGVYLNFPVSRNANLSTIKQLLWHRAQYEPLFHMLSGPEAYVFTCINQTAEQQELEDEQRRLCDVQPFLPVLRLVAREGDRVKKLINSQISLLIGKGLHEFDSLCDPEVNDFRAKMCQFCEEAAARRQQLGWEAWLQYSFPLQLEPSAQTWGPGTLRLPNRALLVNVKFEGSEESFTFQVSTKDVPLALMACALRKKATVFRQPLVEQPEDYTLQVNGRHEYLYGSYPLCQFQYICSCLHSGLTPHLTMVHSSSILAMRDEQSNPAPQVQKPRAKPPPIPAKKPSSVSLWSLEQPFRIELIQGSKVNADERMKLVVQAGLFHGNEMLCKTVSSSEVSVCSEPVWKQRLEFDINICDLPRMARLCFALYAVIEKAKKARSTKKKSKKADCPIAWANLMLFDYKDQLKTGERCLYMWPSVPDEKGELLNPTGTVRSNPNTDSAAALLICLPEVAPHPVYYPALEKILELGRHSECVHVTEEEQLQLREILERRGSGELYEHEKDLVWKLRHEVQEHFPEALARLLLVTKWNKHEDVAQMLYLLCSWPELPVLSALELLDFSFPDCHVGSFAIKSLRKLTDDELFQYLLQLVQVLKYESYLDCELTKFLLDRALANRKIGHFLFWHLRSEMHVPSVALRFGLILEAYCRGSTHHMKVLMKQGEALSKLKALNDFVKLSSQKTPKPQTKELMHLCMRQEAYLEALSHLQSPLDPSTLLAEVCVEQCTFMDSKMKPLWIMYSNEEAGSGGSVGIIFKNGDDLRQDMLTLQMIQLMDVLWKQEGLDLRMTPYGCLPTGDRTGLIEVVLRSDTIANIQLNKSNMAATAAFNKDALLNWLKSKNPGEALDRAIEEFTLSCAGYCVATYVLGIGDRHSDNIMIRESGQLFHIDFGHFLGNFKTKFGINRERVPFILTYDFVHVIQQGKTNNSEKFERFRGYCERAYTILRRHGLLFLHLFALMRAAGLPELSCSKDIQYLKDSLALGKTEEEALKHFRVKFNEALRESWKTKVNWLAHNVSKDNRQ
# Chain of PI3Kδ (P27986 whole entry partner): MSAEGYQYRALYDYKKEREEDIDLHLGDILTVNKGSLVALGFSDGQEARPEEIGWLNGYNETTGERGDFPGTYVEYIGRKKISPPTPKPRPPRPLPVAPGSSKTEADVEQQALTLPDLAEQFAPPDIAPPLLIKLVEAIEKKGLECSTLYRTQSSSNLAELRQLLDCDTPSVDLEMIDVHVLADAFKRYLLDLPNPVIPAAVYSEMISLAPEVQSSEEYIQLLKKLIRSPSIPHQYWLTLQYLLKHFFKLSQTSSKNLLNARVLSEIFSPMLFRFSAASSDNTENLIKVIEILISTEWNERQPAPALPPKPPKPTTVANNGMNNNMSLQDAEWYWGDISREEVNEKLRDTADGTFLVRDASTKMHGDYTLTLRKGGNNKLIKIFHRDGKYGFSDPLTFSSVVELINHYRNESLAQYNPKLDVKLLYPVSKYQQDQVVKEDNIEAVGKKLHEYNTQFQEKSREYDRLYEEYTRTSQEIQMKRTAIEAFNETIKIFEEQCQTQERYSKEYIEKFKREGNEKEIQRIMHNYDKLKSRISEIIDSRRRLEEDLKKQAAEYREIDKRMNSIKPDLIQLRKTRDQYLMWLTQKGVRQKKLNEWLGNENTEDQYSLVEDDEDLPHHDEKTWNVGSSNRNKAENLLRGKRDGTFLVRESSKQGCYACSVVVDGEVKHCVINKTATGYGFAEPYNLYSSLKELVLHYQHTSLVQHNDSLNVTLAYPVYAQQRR
# Excerpt: as §1
# In vitro kinase profile assays were analyzed by the Kinase Profiler Service (Millipore, United Kingdom) following its guidelines. […] The PI3K kinase activity was determined in the increasing concentration of ATP and X-370 with PI3-Kinase HTRF™ Assay kit (Millipore) as described previously.
# [4] = target: T1, MEK1 (Homo sapiens, UniProt Q02750); assay: KinaseProfiler protein kinase activity; type: biochemical; conditions: 10 μM X-370
# T1 construct: purchased Millipore KinaseProfiler
# T1 sequence (Q02750 whole entry): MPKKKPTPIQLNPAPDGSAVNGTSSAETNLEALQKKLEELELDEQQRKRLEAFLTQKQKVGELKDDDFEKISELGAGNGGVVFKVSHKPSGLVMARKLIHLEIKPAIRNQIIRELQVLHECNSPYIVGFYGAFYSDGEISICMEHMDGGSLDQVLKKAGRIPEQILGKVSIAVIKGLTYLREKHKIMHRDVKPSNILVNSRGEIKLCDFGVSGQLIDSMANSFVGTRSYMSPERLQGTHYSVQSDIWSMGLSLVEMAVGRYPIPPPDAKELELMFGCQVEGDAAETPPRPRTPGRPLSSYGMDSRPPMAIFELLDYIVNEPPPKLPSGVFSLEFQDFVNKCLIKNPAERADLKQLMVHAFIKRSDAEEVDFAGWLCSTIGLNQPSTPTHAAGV
# Description: (§3) In vitro kinase profile assays were analyzed by the Kinase Profiler Service (Millipore, United Kingdom) following its guidelines. A GST-tagged human p110δ and regulatory full-length p85 were co-expressed in insect cell Sf9. Recombinant protein was extracted by affinity purification. The PI3K kinase activity was determined in the increasing concentration of ATP and X-370 with PI3-Kinase HTRF™ Assay kit (Millipore) as described previously. […]
# (§4) Table S1: Inhibitory activity of X-370 against protein kinases
# (§5) kinome at 10 μM. The relative kianse activity left in the presence of 10 μM were shown (Mi llipore
# (§6) Kinase activity (% of control) Kinase activity (% of control) Kinase activity (% of control)
# (§7) CDK1/cyclinB 97 Lck activated 89 Ret 125
# [5] = target: T2, IR, activated (Homo sapiens, UniProt P06213); assay: KinaseProfiler protein kinase activity; type: biochemical; conditions: 10 μM X-370
# T2 construct: purchased Millipore KinaseProfiler
# Description: as §3, §4, §5, §6, §7
# [6] = target: T3, Pim-1 (Homo sapiens, UniProt P11309); assay: KinaseProfiler protein kinase activity; type: biochemical; conditions: 10 μM X-370
# T3 construct: purchased Millipore KinaseProfiler
# T3 sequence (P11309 whole entry): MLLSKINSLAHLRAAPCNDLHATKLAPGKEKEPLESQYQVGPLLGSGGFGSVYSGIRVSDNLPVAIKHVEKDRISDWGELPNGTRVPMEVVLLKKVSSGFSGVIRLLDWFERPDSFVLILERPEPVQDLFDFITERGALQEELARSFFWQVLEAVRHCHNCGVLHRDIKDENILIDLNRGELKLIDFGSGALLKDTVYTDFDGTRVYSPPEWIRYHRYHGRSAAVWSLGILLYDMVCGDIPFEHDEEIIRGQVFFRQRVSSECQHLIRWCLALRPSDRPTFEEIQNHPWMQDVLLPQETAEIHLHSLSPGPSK
# Description: as §3, §4, §5, §6, §7
# [7] = target: T4, NEK11 (Homo sapiens, UniProt Q8NG66); assay: KinaseProfiler protein kinase activity; type: biochemical; conditions: 10 μM X-370
# T4 construct: purchased Millipore KinaseProfiler
# T4 sequence (Q8NG66 whole entry): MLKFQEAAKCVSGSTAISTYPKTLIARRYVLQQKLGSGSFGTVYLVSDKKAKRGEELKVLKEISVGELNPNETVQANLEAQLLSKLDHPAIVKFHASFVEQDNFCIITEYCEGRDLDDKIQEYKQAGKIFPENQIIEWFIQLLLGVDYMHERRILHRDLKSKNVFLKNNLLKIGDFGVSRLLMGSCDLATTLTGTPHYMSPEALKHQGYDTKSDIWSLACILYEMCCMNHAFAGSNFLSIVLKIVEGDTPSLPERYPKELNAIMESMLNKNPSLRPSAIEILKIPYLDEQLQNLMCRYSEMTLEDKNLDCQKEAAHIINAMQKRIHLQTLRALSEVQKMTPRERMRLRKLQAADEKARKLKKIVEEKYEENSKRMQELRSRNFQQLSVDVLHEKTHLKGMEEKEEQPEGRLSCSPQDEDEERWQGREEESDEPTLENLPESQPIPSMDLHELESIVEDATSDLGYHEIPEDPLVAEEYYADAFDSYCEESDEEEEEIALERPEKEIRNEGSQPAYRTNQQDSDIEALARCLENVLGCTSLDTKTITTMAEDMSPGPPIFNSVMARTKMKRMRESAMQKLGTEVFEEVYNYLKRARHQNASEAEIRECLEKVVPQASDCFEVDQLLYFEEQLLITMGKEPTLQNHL
# Description: as §3, §4, §5, §6, §7
# [8] = target: T5, ROCK-I (Homo sapiens, UniProt Q13464); assay: KinaseProfiler protein kinase activity; type: biochemical; conditions: 10 μM X-370
# T5 construct: purchased Millipore KinaseProfiler
# T5 sequence (Q13464 whole entry): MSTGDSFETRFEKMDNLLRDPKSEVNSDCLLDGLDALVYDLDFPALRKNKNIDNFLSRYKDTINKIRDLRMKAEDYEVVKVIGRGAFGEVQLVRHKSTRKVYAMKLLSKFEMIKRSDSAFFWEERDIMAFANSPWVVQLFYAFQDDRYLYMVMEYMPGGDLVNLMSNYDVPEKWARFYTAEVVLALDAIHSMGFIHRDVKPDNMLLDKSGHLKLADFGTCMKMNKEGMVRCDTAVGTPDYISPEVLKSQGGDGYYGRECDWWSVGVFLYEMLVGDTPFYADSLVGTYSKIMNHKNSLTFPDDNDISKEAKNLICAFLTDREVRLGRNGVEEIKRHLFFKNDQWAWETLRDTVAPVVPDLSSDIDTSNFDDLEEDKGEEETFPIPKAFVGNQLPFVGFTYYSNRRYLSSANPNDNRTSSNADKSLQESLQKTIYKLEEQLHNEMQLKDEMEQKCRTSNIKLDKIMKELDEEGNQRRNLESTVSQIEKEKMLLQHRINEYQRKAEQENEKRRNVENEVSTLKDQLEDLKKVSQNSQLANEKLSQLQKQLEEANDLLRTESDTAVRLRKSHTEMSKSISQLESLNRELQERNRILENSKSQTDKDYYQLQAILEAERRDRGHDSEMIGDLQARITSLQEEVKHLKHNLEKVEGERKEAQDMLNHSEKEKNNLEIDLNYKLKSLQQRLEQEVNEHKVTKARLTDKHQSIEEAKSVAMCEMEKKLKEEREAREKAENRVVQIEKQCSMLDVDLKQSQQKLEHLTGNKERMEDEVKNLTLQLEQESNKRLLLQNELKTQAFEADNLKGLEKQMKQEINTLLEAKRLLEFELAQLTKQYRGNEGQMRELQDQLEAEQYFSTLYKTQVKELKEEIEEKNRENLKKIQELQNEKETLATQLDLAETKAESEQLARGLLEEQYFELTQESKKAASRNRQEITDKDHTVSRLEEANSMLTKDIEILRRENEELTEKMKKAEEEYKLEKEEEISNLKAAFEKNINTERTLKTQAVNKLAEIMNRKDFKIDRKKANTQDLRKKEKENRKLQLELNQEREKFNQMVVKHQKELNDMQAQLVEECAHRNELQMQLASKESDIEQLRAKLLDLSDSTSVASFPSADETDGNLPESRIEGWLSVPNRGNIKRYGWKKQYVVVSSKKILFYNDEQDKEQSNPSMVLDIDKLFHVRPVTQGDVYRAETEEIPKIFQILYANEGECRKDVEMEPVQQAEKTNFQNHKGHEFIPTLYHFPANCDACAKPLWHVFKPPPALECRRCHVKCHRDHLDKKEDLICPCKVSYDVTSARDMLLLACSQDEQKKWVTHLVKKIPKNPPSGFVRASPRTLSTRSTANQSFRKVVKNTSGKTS
# Description: as §3, §4, §5, §6, §7
# [9] = target: T6, PKB α (Homo sapiens, UniProt P31749); assay: KinaseProfiler protein kinase activity; type: biochemical; conditions: 10 μM X-370
# T6 construct: purchased Millipore KinaseProfiler
# T6 sequence (P31749 whole entry): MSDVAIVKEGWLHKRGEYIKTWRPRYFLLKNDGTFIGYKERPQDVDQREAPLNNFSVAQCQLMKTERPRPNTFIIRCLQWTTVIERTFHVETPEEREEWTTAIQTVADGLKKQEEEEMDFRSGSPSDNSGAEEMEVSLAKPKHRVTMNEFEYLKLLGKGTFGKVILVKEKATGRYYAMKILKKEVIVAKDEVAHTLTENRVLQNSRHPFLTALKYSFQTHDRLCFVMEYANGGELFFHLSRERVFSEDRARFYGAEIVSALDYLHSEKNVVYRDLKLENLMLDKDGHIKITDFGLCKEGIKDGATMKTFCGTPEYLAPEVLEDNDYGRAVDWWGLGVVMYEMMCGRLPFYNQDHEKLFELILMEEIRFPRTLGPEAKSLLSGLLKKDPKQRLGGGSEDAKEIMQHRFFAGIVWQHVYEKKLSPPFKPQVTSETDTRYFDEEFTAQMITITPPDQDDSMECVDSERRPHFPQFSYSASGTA
# Description: as §3, §4, §5, §6, §7
# [10] = tested on: human B cell leukemia cells; assay: Proliferation of a panel of human B cell leukemia cells (CCK-8); type: cell-based; conditions: 72 h, range over the cell panel, read-out: IC50s, proliferation
# Description: as §2
# Figure S3: X-370 inhibited proliferation of human B cell leukemia cells. Cells were seeded in 96 -well plate and treated with serial diluted X-370 for 72 h. cell viability was then assessed by CCK-8 reagent and inhibitory rate was calculated. […]
# antiproliferative activity of X-370 against these cells. […]
compound,measurement,setting,value
O=C(N1CCCC1)N1CCC(n2cnc3c(-n4c(C(F)F)nc5ccccc54)nc(N4CCOCC4)nc32)CC1 [X-370],selectivity for PI3Kδ against other lipid kinases,[1],More than 1000 fold
same,sensitivity of proliferation compared to parental Raji cells,[2],resistant
same,manner of inhibition of PI3Kδ kinase activity,[3],ATP-competitive
same,Kinase activity (% of control),[4],109 % of control
same,Kinase activity (% of control),[5],111 % of control
same,Kinase activity (% of control),[6],88 % of control
same,Kinase activity (% of control),[7],95 % of control
same,Kinase activity (% of control),[8],93 % of control
same,Kinase activity (% of control),[9],87 % of control
same,IC50,[10],0.04 to 6.3 µM
